Test system: Dendritic cells
Assay: Induction of IL-12 secretion in dendritic cells (ELISA)
Assay type: cell-based, BALB/c mice
Details: dendritic cells; compounds 50 μg/ml and 20 μg/ml, 24 hrs (or 48 hrs)
Method: BALB/c male and female mice bred and maintained at the University of Strathclyde under conventional conditions were used at 8 weeks old.
Bone marrow was obtained from the femurs of mice. The femurs were washed in 70% ethanol and placed in a clean petri dish. Dendritic cell (DC) medium (2.5% granulocyte-macrophage colony-stimulating factor (GM-CSF), 10% […] foetal calf serum, 1% L-glutamine, 1% Penicillin/Streptomycin in RPMI-1640 medium) was injected into the bone marrow of the femur by a pumping action and the cells and medium were collected. 1 ml of the cells in medium was added to a 75 cm^2 flask with 15 mls of DC medium. The flasks were then incubated at 37° C., 5% CO2 to allow DC growth and development. After 5 days an additional 10 mls of DC medium was added.
After 10 days of incubation of bone marrow with GM-CSF, the dendritic cells were harvested. This process was carried out in a tissue culture hood. The contents of the flasks were poured into centrifuge tubes to ensure collection of floating DCs. Approximately 10 mls of cooled phosphate buffered saline (PBS) was added to each empty flask, the flasks gently agitated and the contents collected. […] The collected contents of the flasks were centrifuged for 5 minutes at 200 g and the pellet resuspended in 2 mls of DC medium without GM-CSF. A cell count was then carried out.
Cells were counted using a haemocytometer. Approximately 20 μl of the resuspended cells was pipetted into the chamber of the haemocytometer, the cells were adjusted to the correct cell concentration (approx. 5×10^4, and not less than 1×10^4, per well) and then plated out for assay.
The plates were incubated overnight at 37° C. with 5% CO2 and allowed to settle (harvesting stimulates them). The next day the compounds (50 μg/ml and 20 μg/ml) and controls were added then again incubated at 37° C. with 5% CO2 for 24 hrs (or 48 hrs). Harvesting and addition of the compounds was all done in a hood. The plates were then frozen to kill the cells and once defrosted the supernatant analysed as described below.
Using an enzyme linked immunosorbent assay (ELISA) IL-12 concentration in the supernatants was measured. All reagents used in this assay were from PharMingen. A 96-well flat-bottomed ELISA plate was coated with purified rat anti-mouse IL-12 (p40/p70) MAb (Cat no. 554478) at 2 μg/ml diluted in PBS pH 9.0 at 50 μl/well. The plate was then covered in cling film and incubated at 4° C. Following incubation the plate was washed 3 times in washing buffer and dried. 200 μl of blocking buffer (10% foetal calf serum in PBS pH 7.0) was added to each well then covered in cling film and incubated at 37° C. for 45 minutes. The plate was washed 3 times and dried. Recombinant mouse Il-12 standard was added at 30 μl in duplicate wells, starting at 10 ng/ml then 5, 2.5, 1.25, 0.625, 0.31, 0.156, 0.078, 0.039, 0.020, 0.010, 0.005 ng/ml. Standards were diluted in blocking buffer. The supernatant samples were added in at 50 μl/well. The plate was then covered in cling film and incubated for 2 hours at 37° C. The plate was then washed 4 times, dried and the secondary antibody added.
Biotin labelled anti-mouse IL-12 (p40/p70) MAb (Cat no. 18482D) at 1 μg/ml (diluted in blocking buffer) was added to each well at a volume of 100 μl/well. The plate was covered in cling film and incubated at 37° C. for 1 hour. The plate was then washed 5 times, dried and the conjugate added. Streptavidin-AKP (Cat no. 13043E) at 100 μl/well was added at a dilution of 1/2000 in blocking buffer followed by incubation under cling film at 37° C. for 45 minutes.
The plate was finally washed 6 times, dried and the substrate added. pNPP (Sigma) in glycine buffer at 1 mg/ml was added at 100 μl/well. The plate was then covered in tinfoil, incubated at 37° C. and checked every 30 minutes for a colour change.
The plate was then read at 405 nm using a SPECTRAmax 190 spectrometer.

**Q.** For `OC[C@@H]1[C@@H](O)[C@H](O)[C@H]2[C@H](O)[C@@H](O)CN21` [casuarine (8), (1R,2R,3R,6S,7S,7aR)-3-(hydroxymethyl)-1,2,6,7-tetrahydroxypyrrolizidine], which “IL-12 RELEASE” value is on record?
**A.** Yes

Source: US8557859B2, “Immunomodulatory compositions” (Summit (Wales) Limited, priority 2003, dated 2013)
